Laboratory results: PubChem BioAssay AID1259407 (Chemical Carcinogenesis Research Information System (CCRIS), 2018)
Activity calls are given as the source filed them. The rule behind the calls is not given here.

System: CCRIS mutagenicity, Ames/micronucleus/aberration tests
Test: CCRIS mutagenicity studies
[1] = Test System: AMES SALMONELLA TYPHIMURIUM, Strain/Indicator: TA100, Metabolic Activation: NONE, Method: STANDARD PLATE
[2] = Test System: AMES SALMONELLA TYPHIMURIUM, Strain/Indicator: TA98, Metabolic Activation: NONE, Method: PREINCUBATION
[3] = Test System: AMES SALMONELLA TYPHIMURIUM, Strain/Indicator: TA100, Metabolic Activation: NONE, Method: PREINCUBATION
[4] = Test System: AMES SALMONELLA TYPHIMURIUM, Strain/Indicator: TA1535, Metabolic Activation: NONE, Method: PREINCUBATION
[5] = Test System: AMES SALMONELLA TYPHIMURIUM, Strain/Indicator: TA98, Metabolic Activation: NONE, Method: STANDARD PLATE
[6] = Test System: AMES SALMONELLA TYPHIMURIUM, Strain/Indicator: TA100, Metabolic Activation: S-9, Method: STANDARD PLATE

Nc1nc(NO)c2ncn([C@@H]3O[C@H](CO)[C@@H](O)[C@H]3O)c2n1
mutagenic call (Test System: AMES SALMONELLA TYPHIMURIUM, Strain/Indicator: TA100(TN5-1,8-DNP1011), Metabolic Activation: NONE, Method: STANDARD PLATE): active; positive
mutagenic call (Test System: AMES SALMONELLA TYPHIMURIUM, Strain/Indicator: TA100(TN5-1,8-DNP1012), Metabolic Activation: NONE, Method: STANDARD PLATE): active; positive
mutagenic call [1]: active; positive

CC/C=C/C#N
mutagenic call (Test System: AMES SALMONELLA TYPHIMURIUM, Strain/Indicator: TA97, Metabolic Activation: HAMSTER, LIVER, S-9, AROCLOR 1254 (10%), Method: PREINCUBATION): inactive; negative
mutagenic call (Test System: AMES SALMONELLA TYPHIMURIUM, Strain/Indicator: TA97, Metabolic Activation: HAMSTER, LIVER, S-9, AROCLOR 1254 (30%), Method: PREINCUBATION): inactive; negative
mutagenic call (Test System: AMES SALMONELLA TYPHIMURIUM, Strain/Indicator: TA97, Metabolic Activation: NONE, Method: PREINCUBATION): inactive; negative
mutagenic call (Test System: AMES SALMONELLA TYPHIMURIUM, Strain/Indicator: TA97, Metabolic Activation: RAT, LIVER, S-9, AROCLOR 1254 (10%), Method: PREINCUBATION): inactive; negative
mutagenic call (Test System: AMES SALMONELLA TYPHIMURIUM, Strain/Indicator: TA97, Metabolic Activation: RAT, LIVER, S-9, AROCLOR 1254 (30%), Method: PREINCUBATION): inactive; negative
mutagenic call (Test System: AMES SALMONELLA TYPHIMURIUM, Strain/Indicator: TA98, Metabolic Activation: HAMSTER, LIVER, S-9, AROCLOR 1254 (10%), Method: PREINCUBATION): inactive; negative
mutagenic call (Test System: AMES SALMONELLA TYPHIMURIUM, Strain/Indicator: TA98, Metabolic Activation: HAMSTER, LIVER, S-9, AROCLOR 1254 (30%), Method: PREINCUBATION): inactive; negative
mutagenic call [2]: inactive; negative
mutagenic call (Test System: AMES SALMONELLA TYPHIMURIUM, Strain/Indicator: TA98, Metabolic Activation: RAT, LIVER, S-9, AROCLOR 1254 (10%), Method: PREINCUBATION): inactive; negative
mutagenic call (Test System: AMES SALMONELLA TYPHIMURIUM, Strain/Indicator: TA98, Metabolic Activation: RAT, LIVER, S-9, AROCLOR 1254 (30%), Method: PREINCUBATION): inactive; negative
mutagenic call (Test System: AMES SALMONELLA TYPHIMURIUM, Strain/Indicator: TA100, Metabolic Activation: HAMSTER, LIVER, S-9, AROCLOR 1254 (10%), Method: PREINCUBATION): inactive; negative
mutagenic call (Test System: AMES SALMONELLA TYPHIMURIUM, Strain/Indicator: TA100, Metabolic Activation: HAMSTER, LIVER, S-9, AROCLOR 1254 (30%), Method: PREINCUBATION): inactive; negative
mutagenic call [3]: inactive; negative
mutagenic call (Test System: AMES SALMONELLA TYPHIMURIUM, Strain/Indicator: TA100, Metabolic Activation: RAT, LIVER, S-9, AROCLOR 1254 (10%), Method: PREINCUBATION): inactive; negative
mutagenic call (Test System: AMES SALMONELLA TYPHIMURIUM, Strain/Indicator: TA100, Metabolic Activation: RAT, LIVER, S-9, AROCLOR 1254 (30%), Method: PREINCUBATION): inactive; negative
mutagenic call (Test System: AMES SALMONELLA TYPHIMURIUM, Strain/Indicator: TA1535, Metabolic Activation: HAMSTER, LIVER, S-9, AROCLOR 1254 (10 OR 30%), Method: PREINCUBATION): inactive; negative
mutagenic call [4]: inactive; negative
mutagenic call (Test System: AMES SALMONELLA TYPHIMURIUM, Strain/Indicator: TA1535, Metabolic Activation: RAT, LIVER, S-9, AROCLOR 1254 (10%), Method: PREINCUBATION): inactive; negative
mutagenic call (Test System: AMES SALMONELLA TYPHIMURIUM, Strain/Indicator: TA1535, Metabolic Activation: RAT, LIVER, S-9, AROCLOR 1254 (30%), Method: PREINCUBATION): inactive; negative
mutagenic call (Test System: AMES SALMONELLA TYPHIMURIUM, Strain/Indicator: TA1537, Metabolic Activation: HAMSTER, LIVER, S-9, AROCLOR 1254 (10 OR 30%), Method: PREINCUBATION): inactive; negative

N=C(N)c1ccc2c(N)c(C(=N)N)[nH]c2c1
mutagenic call [5]: inactive; negative
mutagenic call (Test System: AMES SALMONELLA TYPHIMURIUM, Strain/Indicator: TA98, Metabolic Activation: RAT, LIVER, S-9, PHENOBARBITAL, Method: STANDARD PLATE): inactive; negative
mutagenic call [1]: inactive; negative
mutagenic call (Test System: AMES SALMONELLA TYPHIMURIUM, Strain/Indicator: TA100, Metabolic Activation: RAT, LIVER, S-9, PHENOBARBITAL, Method: STANDARD PLATE): inactive; negative

CO/N=C(\C(=O)N[C@@H]1C(=O)N2C(C(=O)OCOC(=O)C(C)(C)C)=C(/C=C\c3scnc3C)CS[C@H]12)c1csc(N)n1
mutagenic call [2]: inactive; negative
mutagenic call (Test System: AMES SALMONELLA TYPHIMURIUM, Strain/Indicator: TA98, Metabolic Activation: RAT, LIVER, S-9, PHENOBARBITAL AND 5,6-BENZOFLAVONE, Method: PREINCUBATION): inactive; negative
mutagenic call [3]: inactive; negative
mutagenic call (Test System: AMES SALMONELLA TYPHIMURIUM, Strain/Indicator: TA100, Metabolic Activation: RAT, LIVER, S-9, PHENOBARBITAL AND 5,6-BENZOFLAVONE, Method: PREINCUBATION): inactive; negative
mutagenic call [4]: inactive; negative
mutagenic call (Test System: AMES SALMONELLA TYPHIMURIUM, Strain/Indicator: TA1535, Metabolic Activation: RAT, LIVER, S-9, PHENOBARBITAL AND 5,6-BENZOFLAVONE, Method: PREINCUBATION): inactive; negative
mutagenic call (Test System: AMES SALMONELLA TYPHIMURIUM, Strain/Indicator: TA1537, Metabolic Activation: NONE, Method: PREINCUBATION): inactive; negative
mutagenic call (Test System: AMES SALMONELLA TYPHIMURIUM, Strain/Indicator: TA1537, Metabolic Activation: RAT, LIVER, S-9, PHENOBARBITAL AND 5,6-BENZOFLAVONE, Method: PREINCUBATION): inactive; negative
mutagenic call (Test System: AMES SALMONELLA TYPHIMURIUM, Strain/Indicator: TA1538, Metabolic Activation: NONE, Method: PREINCUBATION): inactive; negative
mutagenic call (Test System: AMES SALMONELLA TYPHIMURIUM, Strain/Indicator: TA1538, Metabolic Activation: RAT, LIVER, S-9, PHENOBARBITAL AND 5,6-BENZOFLAVONE, Method: PREINCUBATION): inactive; negative
mutagenic call (Test System: E. COLI, Strain/Indicator: WP2 UVRA, Metabolic Activation: NONE, Method: PREINCUBATION): inactive; negative
mutagenic call (Test System: E. COLI, Strain/Indicator: WP2 UVRA, Metabolic Activation: RAT, LIVER, S-9, PHENOBARBITAL AND 5,6-BENZOFLAVONE, Method: PREINCUBATION): inactive; negative
mutagenic call (Test System: MOUSE LYMPHOMA, Strain/Indicator: L5178Y (TK+/TK-), Metabolic Activation: NONE): inactive; negative
mutagenic call (Test System: MOUSE LYMPHOMA, Strain/Indicator: L5178Y (TK+/TK-), Metabolic Activation: RAT, LIVER, S-9, PHENOBARBITAL AND 5,6-BENZOFLAVONE): inactive; negative
mutagenic call (Test System: UDS RAT STOMACH MUCOSA CELLS, Strain/Indicator: THY INCORP, Metabolic Activation: NONE, Method: IN VIVO-IN VITRO): inactive; negative

Cn1cc(C[C@@]2(O)C(=O)O[C@@H]3[C@@H](O)CO[C@@]32O)c2ccccc21
mutagenic call [5]: active; positive
mutagenic call (Test System: AMES SALMONELLA TYPHIMURIUM, Strain/Indicator: TA98, Metabolic Activation: RAT, LIVER, S-9, PCB, Method: STANDARD PLATE): active; positive
mutagenic call [1]: active; positive
mutagenic call (Test System: AMES SALMONELLA TYPHIMURIUM, Strain/Indicator: TA100, Metabolic Activation: RAT, LIVER, S-9, PCB, Method: STANDARD PLATE): active; positive

CC(C)C(=O)Nc1snc2ccccc12
mutagenic call [1]: inactive; negative
mutagenic call [6]: inactive; negative
mutagenic call (Test System: AMES SALMONELLA TYPHIMURIUM, Strain/Indicator: TA1537, Metabolic Activation: NONE, Method: STANDARD PLATE): inactive; negative
mutagenic call (Test System: AMES SALMONELLA TYPHIMURIUM, Strain/Indicator: TA1537, Metabolic Activation: S-9, Method: STANDARD PLATE): inactive; negative

Cc1cc(Cc2cc(C)cc(C(C)(C)C)c2O)c(O)c(C(C)(C)C)c1
mutagenic call [5]: inactive; negative
mutagenic call (Test System: AMES SALMONELLA TYPHIMURIUM, Strain/Indicator: TA98, Metabolic Activation: S-9, Method: STANDARD PLATE): inactive; negative
mutagenic call [1]: inactive; negative
mutagenic call [6]: inactive; negative
